In patent US7544666B2, “NAP derivatives” (Industrial Technology Research Institute, priority 2005, dated 2009):

Legend:
[1] = Stability in Hanks' balanced salt solution (HBSS); format: physicochemical; settings: 37° C., relative to initial conc. in HBSS = 100.00
Experimental: (§1) The stability of the NAP derivatives prepared by EXAMPLE 1 was measured with the system of human colon cancer cell, Caco-2 cell. Caco-2 cells (1×10^5 cells) were first seeded into a polycarbonate film on the upper layer of a 12-well Transwell and incubated for 18 to 26 days at 37° C. The TEER of the Caco-2 cell monolayer was measured over 350 Ω×cm^2. The stability of the NAP derivatives in the Hanks' balanced salt solutions (HBSS) was measured by the concentration changes of NAP and the NAP derivatives incubated in the HBSS at 37° C. for 4 hours. The stability of the NAP derivatives in the Caco-2 cell system was measured by the procedure described below. NAP and the NAP derivatives in the HBSS were added into the upper layer of the Caco-2 cell-seeded Transwell. After 4-hour incubation, the concentration of NAP and the NAP derivatives in the upper and lower layers was measured and analyzed in comparison with the initial concentration (500 μM) by reverse HPLC at 210 nm.

Caco-2 cell = experiment: Stability in the Caco-2 cell system; format: in vitro ADME, human; settings: 4-hour incubation in Caco-2 Transwell; relative to initial conc. = 100.00 (500 μM)
Experimental: as §1

Caco-2 cell monolayer = experiment: Permeation to Caco-2 cell monolayer; format: in vitro ADME, human; parameters: unit not given here; settings: 4-hour incubation, initial concentration 500 μM in upper layer
Experimental: The permeation of NAP and the NAP derivatives was examined using the Caco-2 cell system. Caco-2 cells (1×10^5 cells) were seeded into the polycarbonate film on the upper layer of a 12-well Transwell and incubated at 37° C. for 18 to 26 days. The TEER of the Caco cell monolayer was measured over 350 Ω×cm^2. NAP and the NAP derivatives in the HBSS were added into the upper layer of the Caco-2 cell-seeded Transwell. After 4-hour incubation, the concentration of NAP and the NAP derivatives in the upper and lower layers was measured and analyzed in comparison with the initial concentration (500 μM) by reverse phase HPLC at 210 nm.

[2] = Pharmacokinetics after single subcutaneous dose in rats; format: in vivo; settings: rat, 1 mg/kg subcutaneous
Experimental: A single dosage of NAP and the NAP derivative of BMEC-NAP0706 were subcutaneously administered to rats respectively, and blood samples were obtained at different time intervals. The blood samples were subjected to LC-MS/MS analysis to measure the concentration of NAP and the NAP derivative. A time-plasma concentration relationship was established and pharmacokinetic parameters were calculated. The procedures are described below.
Long Evans rats with body weight between 220 to 240 g were obtained from the National Laboratory Animal Center, Taiwan and caged in the laboratory animal housing in the Industrial Technology Research Institute, Taiwan. The Breeding procedure follows the “Guide for the Care and Use of Laboratory Animals” established by the Chinese Society of Laboratory Animal Sciences. The rats were kept on an alternating 12-hour light and 12-hour dark schedule with sufficient feed and water until they reached the body weight between 280 to 300 g.
Each rat was weighed before the pharmacokinetic examination to estimate its own dosage. The tested drug dissolved in PBS was formulated to achieve the amount of one dosage between 0.28 to 0.32 mL. Each rat was subcutaneously administered with 1 mg/kg of the tested drug. 0.3 mL of blood samples were collected from the saphenous vein in medial thigh of the rat before and 0.25-, 0.5-, 0.75-, 1-, 2-, 4-, 24-hour after administration. Whole blood was centrifuged under 3500 rpm for 10 min and supernatant (serum) was moved to a clean 1.5 mL eppendorf and stored at −80° C.
Sample pretreatment was as follows: The frozen serum was thawed in an ice bath. One hundred μL of the serum was moved to a clean 1.5 mL eppendorf and 10 μL of internal standard material was added. The mixture was added with 200 μL ACN and mixed again. The sample was centrifuged under 14000 rpm at 4° C. for 10 min, and the supernatant was moved to the other clean eppendorf and dried in a vacuum system at 60° C. for 30 min. The dried sample was dissolved in 900 μL ddH2O. The sample was added to a solid phase extraction column previously activated with methanol and ddH2O. After the sample passed through, the extraction column was washed with ddH2O alone and then ddH2O containing 5% ACN and 0.1% TFA. The sample was dissolved from the extraction column with ACN containing 0.1% TFA and dried under a vacuum system at 60° C. for 1 hour. The dried sample was redissolved with 100 μL of ddH2O containing 50% ACN. The sample was analyzed with HPLC-MS/MS system.
The sample analysis was as described below. 20 μL of the sample was poured into the HPLC-MS/MS system. The solvent system was applied in gradient partitioning: 90% A (H2O/ACN=98/2, 0.1% F.A.) and 10% B (H2O/ACN=20/80, 0.1% F.A.) at 0-3 min; 10% A and 90% B at 3-6.5 min; 90% A and 10% B again at 6.5-15 min. The flow rate was 0.2 mL/min. The column was ZORBAX C18, 5 μm, 2.1×50 mm (Agilent) and the detector was ABI 4000 Q Trap. Each sample was analyzed for 15 min. The results were compared with the standard calibration curve to estimate the concentration of each sample. All data was statistically analyzed with Excel or WinNonlin.

Row | Compound | Conc. after 4-hour in HBSS [1] | Conc. after 4-hour in Caco-2 cells (Caco-2 cell) | Conc. at the lover layer (Caco-2 cell monolayer) | also measured
1 | CCCCOC(=O)N[C@@H](CC(N)=O)C(=O)N[C@@H](C)C(=O)N1CCC[C@H]1C(=O)N[C@H](C(=O)N[C@@H](CO)C(=O)N[C@H](C(=O)N1CCC[C@H]1C(=O)N[C@@H](CCC(N)=O)C(N)=O)[C@@H](C)CC)C(C)C [BMEC-NAP0503, nBu-OCO-NAPVSIPQ-NH2] | 99.77 | 85.89 | 0.60 | 
2 | H-NAPVSIPN-OH [BMEC-NAP0603, H-NAPVSIPN-OH] | 101.90 | 29.17 | 0.04 | 
3 | CC[C@H](C)[C@H](NC(=O)[C@H](CO)NC(=O)[C@@H](NC(=O)[C@@H]1CCCN1C(=O)[C@H](C)NC(=O)[C@H](CC(N)=O)NC(=O)c1cccc2ccccc12)C(C)C)C(=O)N1CCC[C@H]1C(=O)N[C@@H](CCC(N)=O)C(N)=O [BMEC-NAP0802, α-Naphthoyl-NAPVSIPQ-NH2] | 100.00 | 88.68 | 0.34 | 
4 | CC[C@H](C)[C@H](NC(=O)[C@H](CO)NC(=O)[C@@H](NC(=O)[C@@H]1CCCN1C(=O)[C@H](C)NC(=O)[C@H](CC(N)=O)NC(=O)OCC1c2ccccc2-c2ccccc21)C(C)C)C(=O)N1CCC[C@H]1C(=O)N[C@@H](CCC(N)=O)C(=O)O [BMEC-NAP0706, Fmoc-NAPVSIPQ-OH] | 99.78 | 67.14 | 0.57 | AUC ([2]; in vivo, sc): 104 ng·h/mL; Cmax ([2]; in vivo, sc): 101 ng/mL; Tmax ([2]; in vivo, sc): 45 min; half-life ([2]; in vivo, sc, read-out: T½ (converted)): 54.6 min; AUC relative to NAP [2]: twice that of NAP; TNAP-max [2]: 0.25 h; maximum plasma concentration relative to NAP [2]: twice that of NAP; time required to reach the highest concentration [2]: 0.25 h
5 | CC[C@H](C)[C@@H]1NC(=O)[C@H](CO)NC(=O)[C@H](C(C)C)NC(=O)[C@@H]2CCCN2C(=O)[C@H](C)NC(=O)[C@H](CC(N)=O)NC(=O)[C@H](CCC(N)=O)NC(=O)[C@@H]2CCCN2C1=O [BMEC-NAP0301, Cyclo-(NAPVSIPQ)] | 100.72 | 94.72 | 0.35 | 
6 | CC[C@H](C)[C@H](NC(=O)[C@H](CO)NC(=O)[C@@H](NC(=O)[C@@H]1CCCN1C(=O)[C@H](C)NC(=O)[C@H](CC(N)=O)NC(=O)c1cccs1)C(C)C)C(=O)N1CCC[C@H]1C(=O)N[C@@H](CCC(N)=O)C(N)=O [BMEC-NAP0804, 2-Thiophenecarbonyl-NAPVSIPQ-NH2] | 98.62 | 92.09 | 0.31 | 
7 | CC[C@H](C)[C@H](NC(=O)[C@H](CO)NC(=O)[C@@H](NC(=O)[C@@H]1CCCN1C(=O)[C@H](C)NC(=O)[C@H](CC(N)=O)NC(=O)OCc1ccccc1)C(C)C)C(=O)N1CCC[C@H]1C(=O)N[C@@H](CCC(N)=O)C(N)=O [BMEC-NAP0805, Cbz-NAPVSIPQ-NH2] | 98.58 | 89.54 | 0.27 | 
8 | CC[C@H](C)[C@H](NC(=O)[C@H](CO)NC(=O)[C@@H](NC(=O)[C@@H]1CCCN1C(=O)[C@H](C)NC(=O)[C@H](CC(N)=O)NC(=O)c1cccs1)C(C)C)C(=O)N1CCC[C@H]1C(=O)N[C@@H](CCC(N)=O)C(=O)O [BMEC-NAP0704, 2-Thiophenecarbonyl-NAPVSIPQ-OH] | 99.88 | 73.69 | 0.24 | 
9 | CC[C@H](C)[C@H](NC(=O)[C@H](CO)NC(=O)[C@@H](NC(=O)[C@@H]1CCCN1C(=O)[C@H](C)NC(=O)[C@H](CC(N)=O)NC(=O)OCc1ccccc1)C(C)C)C(=O)N1CCC[C@H]1C(=O)N[C@@H](CCC(N)=O)C(=O)O [BMEC-NAP0705, Cbz-NAPVSIPQ-OH] | 100.00 | 72.93 | 0.21 | 
10 | CCCC(=O)N[C@@H](CC(N)=O)C(=O)N[C@@H](C)C(=O)N1CCC[C@H]1C(=O)N[C@H](C(=O)N[C@@H](CO)C(=O)N[C@H](C(=O)N1CCC[C@H]1C(=O)N[C@@H](CCC(N)=O)C(N)=O)[C@@H](C)CC)C(C)C [BMEC-NAP0201, Butyryl-NAPVSIPQ-NH2] | 100.39 | 94.18 | 0.12 | 
11 | CCCCCCOC(=O)N[C@@H](CC(N)=O)C(=O)N[C@@H](C)C(=O)N1CCC[C@H]1C(=O)N[C@H](C(=O)N[C@@H](CO)C(=O)N[C@H](C(=O)N1CCC[C@H]1C(=O)N[C@@H](CCC(N)=O)C(N)=O)[C@@H](C)CC)C(C)C [BMEC-NAP0504, nHex-OCO-NAPVSIPQ-NH2] | 100.22 | 82.71 | 0.49 | 
12 | CC[C@H](C)[C@H](NC(=O)[C@H](CO)NC(=O)[C@@H](NC(=O)[C@@H]1CCCN1C(=O)[C@H](C)NC(=O)[C@H](CC(N)=O)NC(=O)OCC(C)C)C(C)C)C(=O)N1CCC[C@H]1C(=O)N[C@@H](CCC(N)=O)C(=O)O [BMEC-NAP0401, iBu-OCO-NAPVSIPQ-OH] | 100.02 | 52.63 | 0.24 | 
13 | Adipyl-NAPVSIPQ-NH2 [BMEC-NAP0202] | 98.38 | 95.59 | 0.82 | 
14 | CCCCCCOC(=O)N[C@@H](CC(N)=O)C(=O)N[C@@H](C)C(=O)N1CCC[C@H]1C(=O)N[C@H](C(=O)N[C@@H](CO)C(=O)N[C@H](C(=O)N1CCC[C@H]1C(=O)N[C@@H](CCC(N)=O)C(=O)O)[C@@H](C)CC)C(C)C [BMEC-NAP0404, nHex-OCO-NAPVSIPQ-OH] | 99.16 | 29.87 | 2.00 | 
